Reference: article PMC12603041, “A neuroprotective tetrapeptide for treatment of acute traumatic brain injury” (EMBO Molecular Medicine, 2025)
Peptide text beside a SMILES is read from it.

How the values were obtained:
injured brain [1] = conditions: mouse, in vivo, iv; cited from earlier work
Source text: We have previously identified a tetrapeptide, CAQK, that accumulates in the ECM of the injured brain. […] We reasoned that knowing the target molecule CAQK binds to would likely give hints of the possible nature of such an activity. Previous work has shown that CAQK binds to a chondroitin sulfate proteoglycan (CSPG)-rich protein complex, the expression of which is elevated following an inju ... || Given the CAQK accumulation in the injured brain and binding to TnC in injured ECM, and the functional activities observed with other homing peptides, it seemed possible that CAQK might affect the course of TBI. To prepare for functional testing of CAQK, we performed CAQK half-life analyses using a mouse model of CCI. […] Initial clearance from the circulation through glomerular filtration is expected for a small peptide, explaining the short half-life. A small per ...

[2] = CAQK plasma clearance in rats; format: in vivo, rat
Method: Figure EV2 CAQK plasma clearance in rats. (A) CAQK was injected daily i.v. in healthy adult Sprague-Dawley rats at a 10 mg/kg dose for 7 days. Blood was collected at different time points at Day 1 and Day 7, and plasma was analyzed by LC/MS to analyze CAQK. Plasma concentration of CAQK was plotted. N = 3 per time point. Plasma clearance data were also used to calculate pharmacokinetic parameters in (B). (C) FP measurement of CAQK binding to BSA. FAM-CAQK (20 nM) was incubated with BSA at the indicated concentration for 1 h at 37 °C. n = 3.
(§1) CAQK (12.5 mg/kg) was injected i.v. into mice with CCI at 4 h post-injury. Blood was collected from these mice at different time points, and plasma was processed and analyzed by LC/MS after a reduction and alkylation step under reducing conditions to capture total peptide (free peptide and peptide bound to plasma proteins by disulfide formation). Plasma concentration was plotted using WinNonlin. Similarly, for analysis in rats, CAQK (10 mg/kg) was injected i.v. into healthy Sprague-Dawley rats once daily for 7 days. Blood was collected at different time points at Day 1 and Day, 7 and plasma was analyzed by LC/MS to analyze CAQK. Plasma concentration of CAQK was plotted. N = 3 per time point.

injured brain [3] = conditions: mouse, in vivo
Method: (§2) Figure 2 Pharmacokinetic analysis of CAQK. (A) Mice with CCI received i.v. bolus of CAQK (12.5 mg/kg) at 4 h after CCI. Blood was collected at different time points, and plasma was analyzed by LC/MS. Plasma concentration of CAQK was plotted using WinNonlin. N = 3 per time point. (B) Plasma clearance data were used to calculate pharmacokinetic parameters using a two-compartment analysis. (C) CAQK accumulation was analyzed in brain homogenates from injured (ipsilateral) and uninjured (contralateral) sides at different time points after i.v. injection and plotted as ng/g of brain tissue. N = 3/group. Data were expressed as mean ± SEM. Differences were analyzed using an unpaired t-test. […] vs contralateral side. […] It is not in the table of panel B, so it is not attached as a condition.
CAQK (12.5 mg/kg) was injected i.v. into mice with CCI at 4 h post-injury. Blood was collected from these mice at different time points, and plasma was processed and analyzed by LC/MS after a reduction and alkylation step under reducing conditions to capture total peptide (free peptide and peptide bound to plasma proteins by disulfide formation). Plasma concentration was plotted using WinNonlin. […] Blood was collected at different time points at Day 1 and Day, 7 and plasma was analyzed by LC/MS to analyze CAQK. […]

in vivo = conditions: mouse, iv, 12.5 mg/kg
Method: as §2, §1

Safety study in CCI mice = format: in vivo, mouse; conditions: for ALP / ALT / BUN / GGT / TBIL: CCI mice, blood after two weeks, n = 5; for ALP / ALT / BUN: mean ± SD
Method: Male C57BL/6 mice (n = 5 per group) with CCI injury were intravenously administered daily with control PBS or with various concentrations (1, 5, and 25 mg/kg) of the CAQK peptide. After 2 weeks, blood was collected from the mice and analyzed for liver and kidney toxicity. Tests performed for liver function (ALP: alkaline phosphatase, ALT: alanine aminotransferase, TBIL total bilirubin, GGT G-glutamyl transferase) and kidney function (BUN: blood urea nitrogen). Results expressed as mean ± SD. For a more detailed safety analysis, Sprague-Dawley rats were randomized to four dose groups. CAQK or vehicle (0.9% sodium chloride injection, USP) was administered once daily by i.v. administration to male and female rats at 0 (vehicle),10, 100, or 300 mg/kg/day (Groups 1–4, respectively) for 7 consecutive days. All animals were euthanized and necropsied after blood sample collection for clinical pathology on Day 8. All animals in Groups 1–4 were evaluated for clinical observations, body weights, and clinical pathology (hematology, coagulation, and serum chemistry), gross necropsy observations and major organ weights. […]
Appendix Table S2. Safety study in CCI mice. C57BL/6 mice (n = 5 per group) with CCI injury were intravenously injecteddaily for 7 days with vehicle control (PBS)or with the shown concentration of the CAQK peptide. After two weeks, blood was collected from the mice and analyzed for liver and kidney toxicity. Tests performed for liver function:ALP:
Alkaline Phosphatase, ALT: Alanine Aminotransferase, TBIL-total bilirubin, GGT -G-glutamyl transferase,and for kidney function:BUN: Blood urea nitrogen. Results

C[C@H](NC(=O)[C@@H](N)CS)C(=O)N[C@@H](CCC(N)=O)C(=O)N[C@@H](CCCCN)C(N)=O [CAQK, cysteine-alanine-glutamine-lysine] (H-CAQK-NH2)
accumulation in other organs (injured brain [1]): No other organs showed peptide accumulation except the kidneys
half-life after single injection versus daily injections over a week ([2]; healthy Sprague-Dawley rats, 10 mg/kg i.v. daily for 7 days, Day 1 and Day 7): remained the same
pK profile after 7-day repeat dosing ([2]; repeat IV dosing, 7 days): unaltered
estimated half-life in the brain (injured brain [3]): about 5.8 h
accumulation in the injured side of the brain versus the contralateral side (injured brain [3]; iv): over eightfold
AUC(0-inf) (in vivo): 27800 ng·h/mL
AUC(0-t) (in vivo): 27400 ng·h/mL
C0 (in vivo): 45100 ng/mL
CL2 (in vivo): 13 mL/min/kg
MRT (in vivo): 4.2 h
T1/2, initial rapid clearance from the blood (in vivo): 9 min
T1/2, second elimination phase (in vivo): 4.1 h
V1 (in vivo): 0.28 L/kg
V2 (in vivo): 1.6 L/kg
Vd (in vivo): 1.9 L/kg
clearance (in vivo): 7.5 mL/min/kg
half-life (in vivo): 4.2 h
k10 (in vivo): 1.6 h⁻¹
k12 (in vivo): 2.8 h⁻¹
k21 (in vivo): 0.48 h⁻¹
t1/2Alpha (in vivo): 9 min
ALP (Safety study in CCI mice; 1 mg/kg i.v. daily for 7 days): 45 ± 5.3 U/L
ALT (Safety study in CCI mice; 1 mg/kg i.v. daily for 7 days): 24.3 ± 6.8 U/L
BUN (Safety study in CCI mice; 1 mg/kg i.v. daily for 7 days): 21.3 ± 3.5 mg /bL
GGT (Safety study in CCI mice; 1 mg/kg i.v. daily for 7 days): < 5 U/L
TBIL (Safety study in CCI mice; 1 mg/kg i.v. daily for 7 days): 0.3 mg/dL
ALP (Safety study in CCI mice; 5 mg/kg i.v. daily for 7 days): 47.4 ± 8.2 U/L
ALT (Safety study in CCI mice; 5 mg/kg i.v. daily for 7 days): 23.4 ± 4.9 U/L
BUN (Safety study in CCI mice; 5 mg/kg i.v. daily for 7 days): 22.2 ± 1 mg /bL
GGT (Safety study in CCI mice; 5 mg/kg i.v. daily for 7 days): < 5 U/L
TBIL (Safety study in CCI mice; 5 mg/kg i.v. daily for 7 days): 0.3 mg/dL
ALP (Safety study in CCI mice; 25 mg/kg i.v. daily for 7 days): 42.6 ± 7.6 U/L
ALT (Safety study in CCI mice; 25 mg/kg i.v. daily for 7 days): 34.8 ± 13.2 U/L
BUN (Safety study in CCI mice; 25 mg/kg i.v. daily for 7 days): 24.8 ± 2.05 mg /bL
GGT (Safety study in CCI mice; 25 mg/kg i.v. daily for 7 days): < 5 U/L
TBIL (Safety study in CCI mice; 25 mg/kg i.v. daily for 7 days): 0.3 mg/dL
effects on body weight, organ weight, or clinical pathology (Safety study in CCI mice; TBI mice, daily i.v. doses (1, 5, and 25 mg/kg)): no effects
